Earlier results, collected in publication PMC3945118 (Journal of molecular neuroscience : MN, 2013).

Test system: rotarod performance
Conditions: test not specified; no reference given

CCCC(CCC)C(=O)O [valproic acid]
Therapeutic Index (TI) of known anticonvulsant: ~1
